Source: article PMC7291858, “An Enhanced Variant Designed From DLP4 Cationic Peptide Against Staphylococcus aureus CVCC 546” (Frontiers in Microbiology, 2020)
Peptide text beside a SMILES is read from it.

system: S. aureus ATCC 43300; format: cell-based, Staphylococcus aureus; details: microtiter, serial 2-fold dilutions, 37°C, 16∼20 h, triplicate; – = no activity
Description: The minimal inhibitory concentration (MIC) was evaluated by a microtiter plate assay ([Wiegand et al., 2008]). Serial 2-fold dilutions of test peptides were placed into a 96-well plate containing identical bacterial inoculum and incubated at 37°C for 16∼20 h. Vancomycin was used as antibiotic control. The MIC value was defined as the lowest peptide concentration where no visible growth occurred. All tests were made in triplicate.

Compared with `CC[C@H](C)[C@@H]1NC(=O)[C@@H]2CSSC[C@@H](C(=O)N[C@@H](CCCNC(=N)N)C(=O)N[C@@H](CCCCN)C(=O)O)NC(=O)[C@H](CC(N)=O)NC(=O)[C@@H]3CSSC[C@H](NC(=O)[C@H](C)NC(=O)[C@H](C)NC(=O)[C@H](Cc4c[nH]cn4)NC(=O)CNC(=O)[C@H](C(C)C)NC(=O)[C@H](CCCCN)NC(=O)[C@H](Cc4ccccc4)NC(=O)[C@@H]4CCCN4C(=O)[C@H](CO)NC(=O)[C@H](CC(C)C)NC(=O)[C@H](CC(C)C)NC(=O)[C@H](CC(=O)O)NC(=O)[C@@H](NC(=O)[C@@H](NC(=O)[C@H](C)N)[C@@H](C)O)CSSC[C@H](NC(=O)[C@H](Cc4c[nH]c5ccccc45)NC(=O)CNC(=O)CNC(=O)[C@H](CCCNC(=N)N)NC(=O)[C@H](CCCCN)NC(=O)CNC(=O)[C@H](CCCNC(=N)N)NC(=O)[C@H](C)NC1=O)C(=O)N[C@@H](CC(N)=O)C(=O)N[C@@H](CCCCN)C(=O)N[C@@H](CCCNC(=N)N)C(=O)N[C@@H](C)C(=O)N[C@@H](C(C)C)C(=O)N3)C(=O)N[C@@H](C)C(=O)N[C@@H](C)C(=O)N[C@@H](Cc1c[nH]cn1)C(=O)N2` [ID10] (HELM PEPTIDE1{A.T.C.D.L.L.S.P.F.K.V.G.H.A.A.C.A.A.H.C.I.A.R.G.K.R.G.G.W.C.N.K.R.A.V.C.N.C.R.K}$PEPTIDE1,PEPTIDE1,3:R3-30:R3|PEPTIDE1,PEPTIDE1,16:R3-36:R3|PEPTIDE1,PEPTIDE1,20:R3-38:R3$$$V2.0; N-terminus and C-terminus assumed; bridges inferred), `CC[C@H](C)[C@@H]1NC(=O)[C@@H]2CSSC[C@@H](C(=O)N[C@@H](CCCNC(=N)N)C(=O)N[C@@H](CCCCN)C(=O)O)NC(=O)[C@H](CC(N)=O)NC(=O)[C@@H]3CSSC[C@H](NC(=O)[C@H](C)NC(=O)[C@H](C)NC(=O)[C@H](Cc4c[nH]cn4)NC(=O)CNC(=O)[C@H](C(C)C)NC(=O)[C@H](CCCCN)NC(=O)[C@H](Cc4ccccc4)NC(=O)[C@@H]4CCCN4C(=O)[C@H](CO)NC(=O)[C@H](CC(C)C)NC(=O)[C@H]([C@@H](C)CC)NC(=O)[C@H](CC(=O)O)NC(=O)[C@@H](NC(=O)[C@@H](NC(=O)[C@H](C)N)[C@@H](C)O)CSSC[C@H](NC(=O)[C@H](Cc4c[nH]c5ccccc45)NC(=O)CNC(=O)CNC(=O)[C@H](CCCNC(=N)N)NC(=O)[C@H](CCCCN)NC(=O)CNC(=O)[C@H](CCCNC(=N)N)NC(=O)[C@H](C)NC1=O)C(=O)N[C@@H](CC(=O)O)C(=O)N[C@@H](CCCCN)C(=O)N[C@@H](CCCNC(=N)N)C(=O)N[C@@H](C)C(=O)N[C@@H](C(C)C)C(=O)N3)C(=O)N[C@@H](C)C(=O)N[C@@H](C)C(=O)N[C@@H](Cc1c[nH]cn1)C(=O)N2` [ID4] (HELM PEPTIDE1{A.T.C.D.I.L.S.P.F.K.V.G.H.A.A.C.A.A.H.C.I.A.R.G.K.R.G.G.W.C.D.K.R.A.V.C.N.C.R.K}$PEPTIDE1,PEPTIDE1,3:R3-30:R3|PEPTIDE1,PEPTIDE1,16:R3-36:R3|PEPTIDE1,PEPTIDE1,20:R3-38:R3$$$V2.0; N-terminus and C-terminus assumed; bridges inferred) is 2-fold higher in “A1 (MIC against S. aureus ATCC 43300)” value: 16 µg/mL for the first, 32 µg/mL for the second.

Compared with `CC[C@H](C)[C@@H]1NC(=O)[C@@H]2CSSC[C@@H](C(=O)N[C@@H](CCCNC(=N)N)C(=O)N[C@@H](CCCCN)C(=O)O)NC(=O)[C@H](CC(N)=O)NC(=O)[C@@H]3CSSC[C@H](NC(=O)[C@H](C)NC(=O)[C@H](C)NC(=O)[C@H](Cc4c[nH]cn4)NC(=O)CNC(=O)[C@H](C(C)C)NC(=O)[C@H](CCCCN)NC(=O)[C@H](Cc4ccccc4)NC(=O)[C@H](CCCCN)NC(=O)[C@H](CO)NC(=O)[C@H](CC(C)C)NC(=O)[C@H](CC(C)C)NC(=O)[C@H](CC(=O)O)NC(=O)[C@@H](NC(=O)[C@@H](NC(=O)[C@H](C)N)[C@@H](C)O)CSSC[C@H](NC(=O)[C@H](Cc4c[nH]c5ccccc45)NC(=O)CNC(=O)CNC(=O)[C@H](CCCNC(=N)N)NC(=O)[C@H](CCCCN)NC(=O)CNC(=O)[C@H](CCCNC(=N)N)NC(=O)[C@H](C)NC1=O)C(=O)N[C@@H](CC(=O)O)C(=O)N[C@@H](CCCCN)C(=O)N[C@@H](CCCNC(=N)N)C(=O)N[C@@H](C)C(=O)N[C@@H](C(C)C)C(=O)N3)C(=O)N[C@@H](C)C(=O)N[C@@H](C)C(=O)N[C@@H](Cc1c[nH]cn1)C(=O)N2` [ID8] (HELM PEPTIDE1{A.T.C.D.L.L.S.K.F.K.V.G.H.A.A.C.A.A.H.C.I.A.R.G.K.R.G.G.W.C.D.K.R.A.V.C.N.C.R.K}$PEPTIDE1,PEPTIDE1,3:R3-30:R3|PEPTIDE1,PEPTIDE1,16:R3-36:R3|PEPTIDE1,PEPTIDE1,20:R3-38:R3$$$V2.0; N-terminus and C-terminus assumed; bridges inferred), `CC[C@H](C)[C@@H]1NC(=O)[C@@H]2CSSC[C@@H](C(=O)N[C@@H](CCCNC(=N)N)C(=O)N[C@@H](CCCCN)C(=O)O)NC(=O)[C@H](CC(N)=O)NC(=O)[C@@H]3CSSC[C@H](NC(=O)[C@H](C)NC(=O)[C@H](C)NC(=O)[C@H](Cc4c[nH]cn4)NC(=O)[C@H](CCCCN)NC(=O)[C@H](C(C)C)NC(=O)[C@H](CCCCN)NC(=O)[C@H](Cc4ccccc4)NC(=O)[C@@H]4CCCN4C(=O)[C@H](CO)NC(=O)[C@H](CC(C)C)NC(=O)[C@H](CC(C)C)NC(=O)[C@H](CC(=O)O)NC(=O)[C@@H](NC(=O)[C@@H](NC(=O)[C@H](C)N)[C@@H](C)O)CSSC[C@H](NC(=O)[C@H](Cc4c[nH]c5ccccc45)NC(=O)CNC(=O)CNC(=O)[C@H](CCCNC(=N)N)NC(=O)[C@H](CCCCN)NC(=O)CNC(=O)[C@H](CCCNC(=N)N)NC(=O)[C@H](C)NC1=O)C(=O)N[C@@H](CC(=O)O)C(=O)N[C@@H](CCCCN)C(=O)N[C@@H](CCCNC(=N)N)C(=O)N[C@@H](C)C(=O)N[C@@H](C(C)C)C(=O)N3)C(=O)N[C@@H](C)C(=O)N[C@@H](C)C(=O)N[C@@H](Cc1c[nH]cn1)C(=O)N2` [ID9] (HELM PEPTIDE1{A.T.C.D.L.L.S.P.F.K.V.K.H.A.A.C.A.A.H.C.I.A.R.G.K.R.G.G.W.C.D.K.R.A.V.C.N.C.R.K}$PEPTIDE1,PEPTIDE1,3:R3-30:R3|PEPTIDE1,PEPTIDE1,16:R3-36:R3|PEPTIDE1,PEPTIDE1,20:R3-38:R3$$$V2.0; N-terminus and C-terminus assumed; bridges inferred) is 2-fold lower in “A1 (MIC against S. aureus ATCC 43300)” value: 32 µg/mL for the first, 16 µg/mL for the second.

`CC[C@H](C)[C@@H]1NC(=O)[C@@H]2CSSC[C@@H](C(=O)N[C@@H](CCCNC(=N)N)C(=O)N[C@@H](CCCCN)C(=O)O)NC(=O)[C@H](CC(N)=O)NC(=O)[C@@H]3CSSC[C@H](NC(=O)[C@H](C)NC(=O)[C@H](C)NC(=O)[C@H](Cc4c[nH]cn4)NC(=O)CNC(=O)[C@H](C(C)C)NC(=O)[C@H](CCCCN)NC(=O)[C@H](Cc4ccccc4)NC(=O)[C@@H]4CCCN4C(=O)[C@H](CO)NC(=O)[C@H](CC(C)C)NC(=O)[C@H](CC(C)C)NC(=O)[C@H](CC(=O)O)NC(=O)[C@@H](NC(=O)[C@@H](NC(=O)[C@H](C)N)[C@@H](C)O)CSSC[C@H](NC(=O)[C@H](Cc4c[nH]c5ccccc45)NC(=O)CNC(=O)CNC(=O)[C@H](CCCNC(=N)N)NC(=O)[C@H](CC(N)=O)NC(=O)CNC(=O)[C@H](CCCNC(=N)N)NC(=O)[C@H](C)NC1=O)C(=O)N[C@@H](CC(=O)O)C(=O)NCC(=O)N[C@@H](CCCNC(=N)N)C(=O)N[C@@H](C)C(=O)N[C@@H](C(C)C)C(=O)N3)C(=O)N[C@@H](C)C(=O)N[C@@H](C)C(=O)N[C@@H](Cc1c[nH]cn1)C(=O)N2` [ID18] (HELM PEPTIDE1{A.T.C.D.L.L.S.P.F.K.V.G.H.A.A.C.A.A.H.C.I.A.R.G.N.R.G.G.W.C.D.G.R.A.V.C.N.C.R.K}$PEPTIDE1,PEPTIDE1,3:R3-30:R3|PEPTIDE1,PEPTIDE1,16:R3-36:R3|PEPTIDE1,PEPTIDE1,20:R3-38:R3$$$V2.0; N-terminus and C-terminus assumed; bridges inferred) and `CC[C@H](C)[C@@H]1NC(=O)[C@@H]2CSSC[C@@H](C(=O)N[C@@H](CCCNC(=N)N)C(=O)N[C@@H](CC(N)=O)C(=O)O)NC(=O)[C@H](CC(N)=O)NC(=O)[C@@H]3CSSC[C@H](NC(=O)[C@H](C)NC(=O)[C@H](C)NC(=O)[C@H](Cc4c[nH]cn4)NC(=O)CNC(=O)[C@H](C(C)C)NC(=O)[C@H](CCCCN)NC(=O)[C@H](Cc4ccccc4)NC(=O)[C@@H]4CCCN4C(=O)[C@H](CO)NC(=O)[C@H](CC(C)C)NC(=O)[C@H](CC(C)C)NC(=O)[C@H](CC(=O)O)NC(=O)[C@@H](NC(=O)[C@@H](NC(=O)[C@H](C)N)[C@@H](C)O)CSSC[C@H](NC(=O)[C@H](Cc4c[nH]c5ccccc45)NC(=O)CNC(=O)CNC(=O)[C@H](CCCNC(=N)N)NC(=O)[C@H](CCCCN)NC(=O)CNC(=O)[C@H](CCCNC(=N)N)NC(=O)[C@H](C)NC1=O)C(=O)N[C@@H](CC(=O)O)C(=O)NCC(=O)N[C@@H](CCCNC(=N)N)C(=O)N[C@@H](C)C(=O)N[C@@H](C(C)C)C(=O)N3)C(=O)N[C@@H](C)C(=O)N[C@@H](C)C(=O)N[C@@H](Cc1c[nH]cn1)C(=O)N2` [ID20] (HELM PEPTIDE1{A.T.C.D.L.L.S.P.F.K.V.G.H.A.A.C.A.A.H.C.I.A.R.G.K.R.G.G.W.C.D.G.R.A.V.C.N.C.R.N}$PEPTIDE1,PEPTIDE1,3:R3-30:R3|PEPTIDE1,PEPTIDE1,16:R3-36:R3|PEPTIDE1,PEPTIDE1,20:R3-38:R3$$$V2.0; N-terminus and C-terminus assumed; bridges inferred) are the same in “A1 (MIC against S. aureus ATCC 43300)” value: 16 µg/mL for the first, 16 µg/mL for the second.
